Laboratory results published in article PMC11031590, “Narazaciclib, a novel multi-kinase inhibitor with potent activity against CSF1R, FLT3 and CDK6, shows strong anti-AML activity in defined preclinical models” (Scientific Reports, 2024).

Columns and labels:
[1] = tested on: MV-4-11 subcutaneous xenograft; experiment: MV-4-11 subcutaneous xenograft model; assay type: in vivo, NOD/scid mice; conditions: Azacitidine 3 mg/kg intraperitoneally twice per week for 3 weeks
Excerpt: The subcutaneous cell line xenograft (CDX) models and systemic patient-derived xenograft (PDX) models of AML have been extensively described before. For the subcutaneous MV-4-11 CDX model, 5 × 10^6 MV-4-11 tumor cells harvested from exponential growth phase were mixed with Matrigel (1:1) and then inoculated into the right front flank region of 6- to 7-week-old female NOD/scid mice for tumor development. MV-4-11 tumor-bearing mice were randomized into 5 groups (N = 8) when their tumor volume reached approximately 100 mm^3 and received their designated treatments following randomization. Narazaciclib was administrated intraperitoneally at 100 mg/kg twice per week for 3 weeks, while Azacitidine was administrated intraperitoneally at 3 mg/kg twice per week for 3 weeks. For the subcutaneous Ba/F3-ETV6-CSF1R CDX model, 1 × 10^6 Ba/F3-ETV6-CSF1R tumor cells harvested from exponential growth phase were mixed with Matrigel (1:1) and then inoculated into the right front flank region of 6- to 8-week-old female NOD/scid mice for tumor development. Ba/F3-ETV6-CSF1R tumor-bearing mice were randomized into 5 groups (N = 6) when their tumor volume reached approximately 100 mm^3 and received their designated treatments following randomization. […] Tumor volume and body weight were measured at different time points and tumor growth inhibition (TGI) was used as index to determine the therapeutic efficacy.

Ba/F3-CSF1R cell line = experiment: Ba/F3-CSF1R proliferation assay (CTG); assay type: cell-based, mouse; conditions: + 100 ng/ml CSF-1
Method: (§1) The recombinant Ba/F3 cell lines overexpressing human CSF1R, or human RBM6-CSF1R, or human ETV6-CSF1R were generated using a retrovirus vector (Kyinno Co., Ltd. Beijing). The recombinant Ba/F3 lines overexpressing human Kras G12C orEGFR-L718Q mutants, and different mutant variants of FLT3 were also similarly created as well. A standard proliferation assay via CTG readout was performed according to the vendor’s instructions (KYinno Biotechnology Co., Ltd. Beijing).

[2] = tested on: Ba/F3-RBM6-CSF1R cell line; experiment: Ba/F3-RBM6-CSF1R proliferation assay (CTG); assay type: cell-based, mouse; conditions: not requiring CSF1
Method: as §1

[3] = tested on: MV-4-11 subcutaneous xenograft; conditions: prior knowledge; cited from earlier work
AM8096 AML-PDX = experiment: AM8096 systemic AML-PDX model; assay type: in vivo, NOD/scid mice; conditions: AM8096, quizartinib
Method: For systemic AML-PDX models, the model establishment and narazaciclib pharmacology experiment were performed essentially as described previously. Briefly, 2 × 10^6 AM7407 cells, or 2 × 10^6 AM7577 cells, or 2 × 10^6 AM5512 cells, or 1.65 × 10^6 AM8096 cells were inoculated intravenously into 4- to 5-week-old female NOD/scid mice for AML development. Engraftment was confirmed by the presence of circulating human CD45+ cells (anti-human CD45 antibody, Cat. 304038, Biolegend) in peripheral blood. Mice with successful engraftment of AML-PDX were randomized into different treatment groups (N = 6) and received their designated treatments. Narazaciclib was administrated orally or intraperitoneally at 10 mg/kg, or 30 mg/kg, or 100 mg/kg every day throughout the study, while Cytarabine was administrated intraperitoneally at 3 mg/kg every day. Following the initiation of designated treatments, leukemic burden was monitored by flow cytometry with anti-human CD45 antibody on the peripheral blood every week as well as on the peripheral blood, bone marrow cells and splenocytes of mice at sacrifice. Mice were sacrifice once the followings are observed: body weight loss over 20%, reduced motility and activity, labored breathing, ruffled coat, hunched back and severe dehydration.

With `Nc1ncn([C@@H]2O[C@H](CO)[C@@H](O)[C@H]2O)c(=O)n1` [Azacitidine, reference compound] the “anti-AML effect (tumor growth)” value [1] was “little anti-AML effect”.
With `COc1ccc(COc2ccc(Cc3cnc(N)nc3N)cc2OC)cc1` [GW2580, reference compound] the IC50 (Ba/F3-CSF1R cell line) was 59.5 nM and the IC50 [2] was 344 nM.
`FC(F)(F)c1ccc(CNc2ccc(Cc3c[nH]c4ncc(Cl)cc34)cn2)cn1` [Pexidartinib, pexidartinib, reference compound] gave an IC50 (Ba/F3-CSF1R cell line; Mus musculus) of about 3.88 nM and an IC50 ([2]; Mus musculus) of 147 nM.
In the case of `CCc1nc(C(N)=O)c(Nc2ccc(N3CCC(N4CCN(C)CC4)CC3)c(OC)c2)nc1NC1CCOCC1` [gilteritinib], the “response of MV-4-11 to FLT3i” value [3] is listed as “responded”.
For `CC(C)(C)c1cc(NC(=O)Nc2ccc(-c3cn4c(n3)sc3cc(OCCN5CCOCC5)ccc34)cc2)no1` [quizartinib, reference compound], the response of model (AM8096 AML-PDX) is listed as “responded poorly” and the “response of MV-4-11 to FLT3i” value [3] is listed as “responded”.
In the case of `CNC(=O)c1cc(Oc2ccc(NC(=O)Nc3ccc(Cl)c(C(F)(F)F)c3)cc2)ccn1` [sorafenib], the “response of MV-4-11 to FLT3i” value [3] is listed as “responded”.
